Drawing on patent publication US9962333B2, “Timed release of substances to treat ocular disorders” (BOARD OF TRUSTEES OF NORTHERN ILLINOIS UNIVERSITY, priority 2013, dated 2018), this text covers solubility for 1 compound.

≈ marks a conversion by molar mass, not a printed value.

One may read the solubility as how much of the substance goes into solution per volume. A lower solubility goes with little dissolved substance.

This data set in a line: physchem. The settings on record: 37 °C, aqueous with cosolvent or surfactant or cyclodextrin, thermodynamic from solid. As for the experimental part:
(a) 50 mg of riboflavin was mixed with different concentrations of HP-β-CD (5, 10, 15, 20, 25, 30 mM)
(b) the mixture was stirred on rotary shaker for 72 hours at 37° C.
(c) after reaching equilibrium, samples were filtered through a 0.2 μm filter and suitably analyzed using UV-vis spectrophotometer.
(b) The mixture was stirred for 72 hrs. on a rotary shaker at 37° C.
(c) After reaching equilibrium, samples were filtered through 0.2 μm membrane filter & analyzed using a spectrophotometer.
(b) The solutions were left to equilibrate for 3 days on a shaker.
(c) After filtration, the solutions were analyzed by UV-vis spectroscopy.
The UV-vis absorption spectrum was obtained for each solution.
The data was used to plot a phase solubility curve for both the cyclodextrine.
50 mg of ofloxacin was added to each sample and then shaken for 72 hrs to attain equilibrium.

For `Cc1cc2nc3c(=O)[nH]c(=O)nc-3n(C[C@H](O)[C@H](O)[C@H](O)CO)c2cc1C` [Riboflavin, riboflavin], the solubility at 72 h was 33 mg/mL (≈ 87.8 mM) (Solubility for HPβ CD) and 31.1 mg/mL (≈ 82.6 mM) (Solubility for methyl β CD).
